{"source": "PubChem BioAssay AID2060488", "about": "(Molecular Pharmacology Branch, DTP, NCI, 2025)", "tested_on": "966289-007-R4-J1-PDC complex spheroid viability", "assay": "Anticancer human tumor 966289-007-R4-J1-PDC patient-derived pancreatic adenocarcinoma cell line growth inhibition [GQUAD]", "conditions": "for pIC50: curve of first compound; for viability, T/C: stronger effect = lower value", "summary_of_the_method": "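Tumor cells were grown as complex spheroids with HUVEC endothelial cells and mesenchymal stem cells as stroma. G-quadruplex stabilizers were combined with targeted agents over half-log dilutions from near the clinical Cmax, or from 10 microM.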", "key": {"[1]": {"conditions": "second compound 0.0316 µM, first compound 0.0316 µM"}, "[2]": {"conditions": "second compound 0.0316 µM, first compound 0.1 µM"}, "[3]": {"conditions": "second compound 0.0316 µM, first compound 0.316 µM"}, "[4]": {"conditions": "second compound 0.0316 µM, first compound 1 µM"}, "[5]": {"conditions": "second compound 0.0316 µM, first compound 3.16 µM"}, "[6]": {"conditions": "second compound 0.0316 µM, first compound 10 µM"}, "[7]": {"conditions": "second compound 0.1 µM, first compound 0.0316 µM"}, "[8]": {"conditions": "second compound 0.1 µM, first compound 0.1 µM"}, "[9]": {"conditions": "second compound 0.1 µM, first compound 0.316 µM"}, "[10]": {"conditions": "second compound 0.1 µM, first compound 1 µM"}, "[11]": {"conditions": "second compound 0.1 µM, first compound 3.16 µM"}, "[12]": {"conditions": "second compound 0.1 µM, first compound 10 µM"}, "[13]": {"conditions": "second compound 0.316 µM, first compound 0.0316 µM"}, "[14]": {"conditions": "second compound 0.316 µM, first compound 0.1 µM"}, "[15]": {"conditions": "second compound 0.316 µM, first compound 0.316 µM"}, "[16]": {"conditions": "second compound 0.316 µM, first compound 1 µM"}, "[17]": {"conditions": "second compound 0.316 µM, first compound 3.16 µM"}, "[18]": {"conditions": "second compound 0.316 µM, first compound 10 µM"}, "[19]": {"conditions": "second compound 1 µM, first compound 0.0316 µM"}, "[20]": {"conditions": "second compound 1 µM, first compound 0.1 µM"}, "[21]": {"conditions": "second compound 1 µM, first compound 0.316 µM"}, "[22]": {"conditions": "second compound 1 µM, first compound 1 µM"}, "[23]": {"conditions": "second compound 1 µM, first compound 3.16 µM"}, "[24]": {"conditions": "second compound 1 µM, first compound 10 µM"}, "[25]": {"conditions": "second compound 3.16 µM, first compound 0.0316 µM"}, "[26]": {"conditions": "second compound 3.16 µM, first compound 0.1 µM"}, "[27]": {"conditions": "second compound 3.16 µM, first compound 0.316 µM"}, "[28]": {"conditions": "second compound 3.16 µM, first compound 1 µM"}, "[29]": {"conditions": "second compound 3.16 µM, first compound 3.16 µM"}, "[30]": {"conditions": "second compound 3.16 µM, first compound 10 µM"}, "[31]": {"conditions": "second compound 10 µM, first compound 0.0316 µM"}, "[32]": {"conditions": "second compound 10 µM, first compound 0.1 µM"}, "[33]": {"conditions": "second compound 10 µM, first compound 0.316 µM"}, "[34]": {"conditions": "second compound 10 µM, first compound 1 µM"}, "[35]": {"conditions": "second compound 10 µM, first compound 3.16 µM"}, "[36]": {"conditions": "second compound 10 µM, first compound 10 µM"}}, "note": "pIC50: −log10 of the molar value.", "data": [{"compound": "C#Cc1c(F)ccc2cc(O)cc(-c3ncc4c(N5CC6CCC(C5)N6)nc(OCC56CCCN5CC(F)C6)nc4c3F)c12", "note": "(centres undefined) + Cc1cnc(CNC(=O)c2c(=O)c3ccc(N4CCCN(C)CC4)nc3n3c2sc2ccccc23)cn1;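 note: spheroids exposed to the agents for seven days before readout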;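 for viability, T/C: percent viability relative to DMSO vehicle control wells taken as 100%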", "values": [{"measurement": "pIC50", "setting": "second compound 0.0316 µM", "result": "< 5.00"}, {"measurement": "pIC50", "setting": "second compound 0.1 µM", "result": "> 7.50"}, {"measurement": "pIC50", "setting": "second compound 0.316 µM", "result": "> 7.50"}, {"measurement": "pIC50", "setting": "second compound 1 µM", "result": "> 7.50"}, {"measurement": "pIC50", "setting": "second compound 3.16 µM", "result": "> 7.50"}, {"measurement": "pIC50", "setting": "second compound 10 µM", "result": "> 7.50"}, {"measurement": "viability, T/C", "setting": "[1]", "result": 114, "unit": "%"}, {"measurement": "viability, T/C", "setting": "[2]", "result": 114, "unit": "%"}, {"measurement": "viability, T/C", "setting": "[3]", "result": 111, "unit": "%"}, {"measurement": "viability, T/C", "setting": "[4]", "result": 116, "unit": "%"}, {"measurement": "viability, T/C", "setting": "[5]", "result": 122, "unit": "%"}, {"measurement": "viability, T/C", "setting": "[6]", "result": 114, "unit": "%"}, {"measurement": "viability, T/C", "setting": "[7]", "result": 38.4, "unit": "%"}, {"measurement": "viability, T/C", "setting": "[8]", "result": 31.4, "unit": "%"}, {"measurement": "viability, T/C", "setting": "[9]", "result": 34.2, "unit": "%"}, {"measurement": "viability, T/C", "setting": "[10]", "result": 31.9, "unit": "%"}, {"measurement": "viability, T/C", "setting": "[11]", "result": 40.5, "unit": "%"}, {"measurement": "viability, T/C", "setting": "[12]", "result": 33.9, "unit": "%"}, {"measurement": "viability, T/C", "setting": "[13]", "result": 10.9, "unit": "%"}, {"measurement": "viability, T/C", "setting": "[14]", "result": 11.8, "unit": "%"}, {"measurement": "viability, T/C", "setting": "[15]", "result": 13.7, "unit": "%"}, {"measurement": "viability, T/C", "setting": "[16]", "result": 12.7, "unit": "%"}, {"measurement": "viability, T/C", "setting": "[17]", "result": 11, "unit": "%"}, {"measurement": "viability, T/C", "setting": "[18]", "result": 7.05, "unit": "%"}, {"measurement": "viability, T/C", "setting": "[19]", "result": 6, "unit": "%"}, {"measurement": "viability, T/C", "setting": "[20]", "result": 4.8, "unit": "%"}, {"measurement": "viability, T/C", "setting": "[21]", "result": 5.85, "unit": "%"}, {"measurement": "viability, T/C", "setting": "[22]", "result": 6.1, "unit": "%"}, {"measurement": "viability, T/C", "setting": "[23]", "result": 6.94, "unit": "%"}, {"measurement": "viability, T/C", "setting": "[24]", "result": 2.87, "unit": "%"}, {"measurement": "viability, T/C", "setting": "[25]", "result": 4.4, "unit": "%"}, {"measurement": "viability, T/C", "setting": "[26]", "result": 5.02, "unit": "%"}, {"measurement": "viability, T/C", "setting": "[27]", "result": 5.21, "unit": "%"}, {"measurement": "viability, T/C", "setting": "[28]", "result": 4.53, "unit": "%"}, {"measurement": "viability, T/C", "setting": "[29]", "result": 4.58, "unit": "%"}, {"measurement": "viability, T/C", "setting": "[30]", "result": 0.22, "unit": "%"}, {"measurement": "viability, T/C", "setting": "[31]", "result": 0.1, "unit": "%"}, {"measurement": "viability, T/C", "setting": "[32]", "result": 0.14, "unit": "%"}, {"measurement": "viability, T/C", "setting": "[33]", "result": 0.14, "unit": "%"}, {"measurement": "viability, T/C", "setting": "[34]", "result": 0.28, "unit": "%"}, {"measurement": "viability, T/C", "setting": "[35]", "result": 0.16, "unit": "%"}, {"measurement": "viability, T/C", "setting": "[36]", "result": 0.11, "unit": "%"}]}, {"compound": "CC(C)(O)C1CCC(Nc2ccc3ncc(-c4cccc(C(F)(F)F)c4)n3n2)CC1", "note": "(centres undefined) + Cc1cnc(CNC(=O)c2c(=O)c3ccc(N4CCCN(C)CC4)nc3n3c2sc2ccccc23)cn1", "values": [{"measurement": "pIC50", "setting": "second compound 0.0316 µM", "result": 5.69}, {"measurement": "pIC50", "setting": "second compound 0.1 µM", "result": "> 7.50"}, {"measurement": "pIC50", "setting": "second compound 0.316 µM", "result": "> 7.50"}, {"measurement": "pIC50", "setting": "second compound 1 µM", "result": "> 7.50"}, {"measurement": "pIC50", "setting": "second compound 3.16 µM", "result": "> 7.50"}, {"measurement": "pIC50", "setting": "second compound 10 µM", "result": "> 7.50"}, {"measurement": "viability, T/C", "setting": "[1]", "result": 103, "unit": "%"}, {"measurement": "viability, T/C", "setting": "[2]", "result": 105, "unit": "%"}, {"measurement": "viability, T/C", "setting": "[3]", "result": 108, "unit": "%"}, {"measurement": "viability, T/C", "setting": "[4]", "result": 97.3, "unit": "%"}, {"measurement": "viability, T/C", "setting": "[5]", "result": 22, "unit": "%"}, {"measurement": "viability, T/C", "setting": "[6]", "result": 16.9, "unit": "%"}, {"measurement": "viability, T/C", "setting": "[7]", "result": 32, "unit": "%"}, {"measurement": "viability, T/C", "setting": "[8]", "result": 29.9, "unit": "%"}, {"measurement": "viability, T/C", "setting": "[9]", "result": 35.4, "unit": "%"}, {"measurement": "viability, T/C", "setting": "[10]", "result": 26, "unit": "%"}, {"measurement": "viability, T/C", "setting": "[11]", "result": 5.94, "unit": "%"}, {"measurement": "viability, T/C", "setting": "[12]", "result": 7.03, "unit": "%"}, {"measurement": "viability, T/C", "setting": "[13]", "result": 8.94, "unit": "%"}, {"measurement": "viability, T/C", "setting": "[14]", "result": 10.5, "unit": "%"}, {"measurement": "viability, T/C", "setting": "[15]", "result": 9.21, "unit": "%"}, {"measurement": "viability, T/C", "setting": "[16]", "result": 9.55, "unit": "%"}, {"measurement": "viability, T/C", "setting": "[17]", "result": 3.64, "unit": "%"}, {"measurement": "viability, T/C", "setting": "[18]", "result": 2.73, "unit": "%"}, {"measurement": "viability, T/C", "setting": "[19]", "result": 6.09, "unit": "%"}, {"measurement": "viability, T/C", "setting": "[20]", "result": 5.79, "unit": "%"}, {"measurement": "viability, T/C", "setting": "[21]", "result": 5.01, "unit": "%"}, {"measurement": "viability, T/C", "setting": "[22]", "result": 4.88, "unit": "%"}, {"measurement": "viability, T/C", "setting": "[23]", "result": 0.44, "unit": "%"}, {"measurement": "viability, T/C", "setting": "[24]", "result": 0.4, "unit": "%"}, {"measurement": "viability, T/C", "setting": "[25]", "result": 3.22, "unit": "%"}, {"measurement": "viability, T/C", "setting": "[26]", "result": 4.22, "unit": "%"}, {"measurement": "viability, T/C", "setting": "[27]", "result": 3.14, "unit": "%"}, {"measurement": "viability, T/C", "setting": "[28]", "result": 0.95, "unit": "%"}, {"measurement": "viability, T/C", "setting": "[29]", "result": 0.08, "unit": "%"}, {"measurement": "viability, T/C", "setting": "[30]", "result": 0.08, "unit": "%"}, {"measurement": "viability, T/C", "setting": "[31]", "result": 0.04, "unit": "%"}, {"measurement": "viability, T/C", "setting": "[32]", "result": 0.09, "unit": "%"}, {"measurement": "viability, T/C", "setting": "[33]", "result": 0.14, "unit": "%"}, {"measurement": "viability, T/C", "setting": "[34]", "result": 0.13, "unit": "%"}, {"measurement": "viability, T/C", "setting": "[35]", "result": 0.14, "unit": "%"}, {"measurement": "viability, T/C", "setting": "[36]", "result": 0.14, "unit": "%"}]}]}
